Reference: ChEMBL document CHEMBL1144745, “Alkyne-quinuclidine derivatives as potent and selective muscarinic antagonists for the treatment of COPD” (Bioorg Med Chem Lett, 2008)
pKi: −log10 of the molar value. Calls of active or inactive are those of the source. The calls are words filed in the database; no cut-off is given here.

Columns and labels:
[1] = molecular target: Muscarinic acetylcholine receptor M3 (Homo sapiens, UniProt P20309); test: Displacement of [3H]N-methylscopolamine from human recombinant muscarinic M3 receptor expressed in CHO cells; format: cell-based
Chain of Muscarinic acetylcholine receptor M3 (Homo sapiens, UniProt P20309) (P20309 whole entry): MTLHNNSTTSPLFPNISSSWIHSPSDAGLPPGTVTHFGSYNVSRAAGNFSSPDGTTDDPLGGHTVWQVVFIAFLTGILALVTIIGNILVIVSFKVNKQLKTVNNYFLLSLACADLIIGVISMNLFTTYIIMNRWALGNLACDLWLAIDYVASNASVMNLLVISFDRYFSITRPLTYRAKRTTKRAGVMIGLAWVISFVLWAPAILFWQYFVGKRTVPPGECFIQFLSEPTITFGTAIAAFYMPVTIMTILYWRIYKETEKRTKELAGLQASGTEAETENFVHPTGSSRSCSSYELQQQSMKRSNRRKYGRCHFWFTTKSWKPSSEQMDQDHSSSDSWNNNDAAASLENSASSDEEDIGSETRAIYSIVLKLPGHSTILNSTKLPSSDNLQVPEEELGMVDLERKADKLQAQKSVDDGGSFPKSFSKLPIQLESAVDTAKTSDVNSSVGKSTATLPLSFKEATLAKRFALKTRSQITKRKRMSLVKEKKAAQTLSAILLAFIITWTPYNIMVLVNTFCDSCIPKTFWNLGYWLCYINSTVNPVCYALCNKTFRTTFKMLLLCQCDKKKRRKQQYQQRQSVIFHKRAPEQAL

[2] = molecular target: T1, Muscarinic acetylcholine receptor M2 (Homo sapiens, UniProt P08172); test: Displacement of [3H]N-methylscopolamine from human recombinant muscarinic M2 receptor expressed in CHO cells; format: cell-based
T1 sequence (P08172 whole entry): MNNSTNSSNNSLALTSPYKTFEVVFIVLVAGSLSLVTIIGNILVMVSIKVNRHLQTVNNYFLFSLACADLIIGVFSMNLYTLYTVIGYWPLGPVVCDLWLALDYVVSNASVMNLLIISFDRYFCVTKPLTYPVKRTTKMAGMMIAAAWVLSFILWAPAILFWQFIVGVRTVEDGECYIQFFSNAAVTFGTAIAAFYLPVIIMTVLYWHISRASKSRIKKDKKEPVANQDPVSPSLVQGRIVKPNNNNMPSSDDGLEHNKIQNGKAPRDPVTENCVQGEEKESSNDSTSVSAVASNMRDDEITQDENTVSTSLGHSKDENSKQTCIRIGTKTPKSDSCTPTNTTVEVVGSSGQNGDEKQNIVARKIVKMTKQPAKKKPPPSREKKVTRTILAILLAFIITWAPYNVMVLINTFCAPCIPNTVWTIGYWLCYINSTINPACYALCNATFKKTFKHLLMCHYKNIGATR

Cavia porcellus = organism: Cavia porcellus; test: (§1) Antagonist activity at muscarinic M2 receptor in carbachol-stimulated guinea pig left atrium; format: functional, tissue-based; details: Cardiac atrium
[3] = molecular target: Muscarinic acetylcholine receptor M3 (Cavia porcellus, UniProt Q8VH26); test: Antagonist activity at muscarinic M3 receptor in carbachol-stimulated guinea pig trachea; format: functional; details: read-out: pA2 (converted)
Chain of Muscarinic acetylcholine receptor M3 (Cavia porcellus, UniProt Q8VH26) (Q8VH26 whole entry): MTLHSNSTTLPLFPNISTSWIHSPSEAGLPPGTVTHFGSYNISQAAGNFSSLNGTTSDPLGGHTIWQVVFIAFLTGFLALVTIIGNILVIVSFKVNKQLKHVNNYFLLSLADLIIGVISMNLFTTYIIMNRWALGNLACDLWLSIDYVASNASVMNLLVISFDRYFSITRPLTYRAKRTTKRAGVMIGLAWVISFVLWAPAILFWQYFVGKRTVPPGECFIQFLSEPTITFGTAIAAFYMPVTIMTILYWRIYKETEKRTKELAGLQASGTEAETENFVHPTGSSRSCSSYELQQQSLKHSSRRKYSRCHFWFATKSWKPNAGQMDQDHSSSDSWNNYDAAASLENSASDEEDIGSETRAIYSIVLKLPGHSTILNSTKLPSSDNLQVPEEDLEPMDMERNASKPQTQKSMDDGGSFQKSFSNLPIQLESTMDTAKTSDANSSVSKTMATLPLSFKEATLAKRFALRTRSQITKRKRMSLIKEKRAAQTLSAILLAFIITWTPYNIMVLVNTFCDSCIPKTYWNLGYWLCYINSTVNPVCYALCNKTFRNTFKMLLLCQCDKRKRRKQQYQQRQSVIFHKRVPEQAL

[4] = as §1; format: functional, tissue-based; details: Cavia porcellus, Cardiac atrium; read-out: pA2 (converted)
[5] = molecular target: Muscarinic acetylcholine receptor M3 (Cavia porcellus) (UniProt Q8VH26); test: Reversible inhibition of muscarinic M3 receptor in electrically-stimulated guinea pig trachea assessed as recovery of maximal effect at >280 min; format: tissue-based; parameters: scale not given: the % may be the effect or the level left
Chain of Muscarinic acetylcholine receptor M3 (Cavia porcellus) (Q8VH26 1-587): as the sequence (Q8VH26 whole entry) above

In the case of COC(C#C[C@@]1(OC)CN2CCC1CC2)(c1ccccc1)c1ccccc1, the pKi [1] was 8.00, the pKi [2] was 6.80 and the Activity (Cavia porcellus) was “Active”.

Work on CO[C@]1(C#C[C@](O)(c2ccccc2)C2CCCCCCC2)CN2CCC1CC2 yielded a pKi [1] of 9.50, a Kb [3] of 6.31 nM and a pKi [2] of 8.50. The Kb [4] was 31.6 nM and the Activity [5] was 20%.

In the case of CC(C)[N+]1(C)C2CCC1CC(OC(=O)[C@H](CO)c1ccccc1)C2 (stereo not given in full), the Activity (Cavia porcellus) was “Active”.

For CO[C@]1(C#C[C@@](O)(c2ccccc2)C2CCCCCCC2)CN2CCC1CC2, the pKi [1] was 8.60, the pKi [2] was 7.50 and the Activity (Cavia porcellus) was “Active”.

With C[N+]1(C)[C@@H]2C[C@@H](OC(=O)C(O)(c3cccs3)c3cccs3)C[C@H]1[C@@H]1O[C@@H]12 the Activity (Cavia porcellus) was “Active”.

With CO[C@]1(C#CC(O)(c2ccccc2)c2ccccc2)CN2CCC1CC2 the Activity (Cavia porcellus) was “Active”.

With COC1(C#CC(C#N)(c2ccccc2)c2ccccc2)CN2CCC1CC2 (stereo not given) the pKi [1] was 8.60, the pKi [2] was 8.20 and the Activity (Cavia porcellus) was “Active”.

With CO[C@]1(C#C[C@](O)(c2ccccc2)C2CCCCC2)CN2CCC1CC2 the Activity (Cavia porcellus) was “Active”.

In the case of CO[C@]1(C#C[C@@](O)(c2ccccc2)C2CCCCCC2)CN2CCC1CC2, the pKi [1] was 8.70, the pKi [2] was 7.70 and the Activity (Cavia porcellus) was “Active”.

In the case of CO[C@]1(C#C[C@@](O)(c2ccccc2)C2CCCCC2)CN2CCC1CC2, the Activity (Cavia porcellus) was “Active”.

For COC1(C#CC(C)(c2ccccc2)c2ccccc2)CN2CCC1CC2 (stereo not given), the pKi [1] was 7.80, the pKi [2] was 7.40 and the Activity (Cavia porcellus) was “Active”.

CO[C@]1(C#C[C@](O)(c2ccccc2)C2CCCCCC2)CN2CCC1CC2 gave a pKi [1] of 9.50, a Kb [3] of 6.31 nM and a pKi [2] of 8.60. For the same compound, the Kb [4] was 5.01 nM and the Activity [5] was 20%.
